Starred links: 1 amine or outer side, 2 acyl side, 3 side chain; linkers in the order of their positions; H or OH if unused. Positions of bridges follow the written chain, without caps; N, C: chain ends. Non-standard residues stand in square brackets, D forms with d. Residues, ends and D or L forms follow the SMILES beside them. ξ: configuration not given here. *: point of attachment. ξAbu(βξ-NH2) = CC(N[*:3])C(N[*:1])C(=O)[*:2]; ξAsp(βξ-Me) = CC(C(=O)O)C(N)C(=O)O; X1 = O=C(Cc1ccc(N[*:1])cc1)[*:2]; ξAbu(3ξ-NH2) = CC(N)C(N)C(=O)O; Lauroyl = CCCCCCCCCCCC(=O)*; Pip = O=C(O)[CH]1CCCCN1

Data set [1] concerns Staphylococcus aureus (MSSA). As to conditions: 24 h. Put shortly:
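Broth microdilution MIC per NCCLS M7-A6 with doubling serial dilutions, in cation-adjusted Mueller-Hinton broth supplemented with 0.625 mM calcium.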

Data set [2] is described as follows: In vivo half-life after single i.v. administration, mice. As to conditions: female, Swiss CD1, mouse, plasma, iv, 10 mg/kg. On the procedure:
Yet other exemplary in vivo models can be used to characterize the pharmacokinetics and pharmacodynamic parameters of antimicrobial compounds of this disclosure. Some parameters that can be measured include an in vivo half-life of a compound, elimination rate and clearance, volume of distribution, and bioavailability. For example, briefly, compounds can be administered as a single i.v. or oral (p.o.) dose in mice or rats. At various time points (ranging from 1 minute to 72 hours), blood from treated animals is collected and the concentration of lipopeptide derivative in the ex vivo plasma can be quantified by, for example, liquid chromatography with mass spectrometric detection (LC/MS). After quantification, pharmacokinetics parameters can be calculated using methods known in the art, such as a one compartment model with mono-exponential decay and linear regression analysis (see, e.g., Fantin et al., Antimicrob. Agents Chemotherap. 35: 1413. 1991).
A pharmacokinetic parameter that can be measured, and which aids in determining efficacy, after a single i.v. administration of an antimicrobial lipopeptide derivative of the instant disclosure is the systemic half-life of the compound. Briefly, test compounds were dissolved in a 5% mannitol solution (pH was then adjusted) to a concentration of 1 mg/mL (w/v). A single intravenous injection in the lateral caudal vein of Swiss CD1 mice (5 to 6 weeks old, female) or Sprague Dawley rats (male) was used to administer the lipopeptide derivative at a final dose of 10 mg/kg. At various time points (ranging from about 4 minutes to about 24 hours for mice, and 48 or 72 hours for rats) mice were sacrificed and blood was harvested. The concentration of lipopeptide derivative in ex vivo plasma was quantified using liquid chromatography (LC) with mass spectrometric detection (MS).

In data set [3] the test system is S. aureus Smith (SAU0017, ATCC 19636). The data set is described as follows: Intraperitoneal murine model of protection against infection (ED50, Table 21). As to conditions: Swiss CD1 mice infected i.p., compound i.v. It counts as in vivo, Staphylococcus aureus. The text has this: (§1) A variety of in vivo models may be used to assess the antimicrobial properties of lipopeptide derivative compounds of this disclosure. For example, antimicrobial compounds of the instant disclosure may be tested for efficacy by measuring a compound's ability to protect a mouse against a microbial infection, such as an infection or disease caused by or related to Gram-positive bacteria, including Staphylococcus aureus, Streptococcus pneumoniae, and Enterococcus faecalis. […] A certain period after infection, mice are then individually treated, for example intravenously (i.v.), with a lipopeptide derivative of this disclosure.
(§2) Antimicrobial lipopeptide derivatives of the instant invention were tested for antimicrobial activity against Gram-positive bacteria in an intraperitoneal (i.p.) murine model (i.e., bacteria were injected i.p. and lipopeptide compounds were administered intravenously (i.v.)). Mice were infected with Staphylococcus aureus, Streptococcus pneumoniae, or Enterococcus faecalis, which were prepared as follows: S. aureus Smith (SAU0017, ATCC 19636) were grown in culture overnight on trypticase soy broth, harvested and then resuspended in fresh media containing 5% mucin (Sigma Chemical Co.); S. pneumoniae (SPN 0032, ATCC 10813) were grown overnight on blood agar plates and re-suspended in 0.9% sterile saline; and E. faecalis EFS0040 (clinical isolate) were grown overnight in culture on blood heart infusion broth, washed and resuspended in 0.9% saline and mixed with equal volume of sterile fecal rat extract. Swiss CD1 mice were each infected i.p. with bacteria at the following doses: S. aureus at 10^6 CFU/mouse; S. pneumoniae at 10^2 CFU/mouse; or E. faecalis at 10^7.5 CFU/mouse. […] The ED50 for each compound was calculated using the method of Reed and Meunch (Am. J. Hyg. 27: 493, 1938).

Data set [4] in a line: Acute toxicity, maximum tolerated dose (MTD). Conditions: Swiss CD1, mouse, in vivo, iv. As for the experimental part: Another measure of toxicity is the maximum tolerated dose (MTD), which is determined as a dose level that is not accompanied by mortality or life-threatening toxicity. The dose ratio between toxic and therapeutic effect is the therapeutic index. […] The data obtained from these cell culture assays and animal studies can be used in formulating a dosage range that is not toxic for use in human subjects. […] The dosage may vary within this range depending upon the dosage form employed and the route of administration utilized. The exact formulation, route of administration and dosage can be chosen by the individual physician in view of the patient's condition or need thereof (see, e.g., Fingl et al., 1975, In: The Pharmacological Basis of Therapeutics, Chapter 1).
For example, to examine acute toxicity, lipopeptide antibiotics of the invention can be tested in an animal model, such as Swiss CD1 mice, to determine the MTD. In certain embodiments, the animals used to test toxicity of a particular compound can be approximately 5-6 weeks old at the start of the experiment and weigh 22-26 g. The lipopeptides may be administered intravenously (i.v.) into, for example, the caudal tail vein at dose levels that range from about 50 to about 500 mg/kg, or from about 75 to about 250 mg/kg, or from about 100 to about 200 mg/kg, or at a dose range at or below 100 mg/kg. The animals are generally observed immediately after administration, 1-2 hours post administration, 5-8 hours post administration, and once daily thereafter. Observations include both the activity level of the mouse as well as any physical side effects from the administered dose. The animal weight is recorded on day 0 (immediately before dosing) and on day 7.

In data set [5] the test system is Enterococcus faecium EFM0101 (VRE, MDR). The data set is described as follows: Broad spectrum MIC, Table 17/18 column A. It counts as cell-based. As to conditions: condition A of Table 17, in µg/mL. As for the experimental part: (§3) The antimicrobial lipopeptide derivatives described herein were tested for antimicrobial activity against Gram-positive bacteria as follows. The minimum inhibitory concentrations (MIC) of the antimicrobial lipopeptide derivatives of the invention were determined using NCCLS guidelines M7-A6 (2003) with a slight modification in that doubling serial dilutions were used to dilute the test compounds. The broth phase microdilution method was used. Isolated colonies of Staphylococcus aureus (MSSA) from an 18-24 hour blood agar plate cultures were used to inoculate cation adjusted Mueller-Hinton broth (CAMHB) supplemented with 0.625 mM calcium. […] A negative control containing media alone and a positive growth control containing bacteria with media alone were also included. MICs were determined after incubating the plates at about 37° C. for 24 hours. […] In Tables 1 to 16, R is the core cyclic peptide of amphomycin or aspartocin, which can be in the form of a β-isomer, an anhydro, a dianhydro, or any combination thereof. […] Furthermore, a person of skill in the art will appreciate that all the pounds, or groups of compounds, derived from the various combinations of and substituents shown in Tables 1 to 16, are disclosed by the present the same extent as if each compound or group of compounds was set forth individually.
(§4) Antimicrobial lipopeptide derivatives of the instant invention were tested for antimicrobial activity against Gram-positive bacteria in a variety of media conditions. The […] (MIC) of the antimicrobial lipopeptide derivatives were determined as described in Example 376. The various media used are described in Table 17.

Data set [6] has as its system Enterococcus faecalis EFS0004 (VSE). The data set is described as follows: Broad spectrum MIC, Table 17/18 B, C, D (CAMHB; + 0.625 mM calcium; + calcium and 30% bovine serum). Format: cell-based. As to conditions: in µg/mL. On the procedure:
as §3, §4

Data set [7] relates to Staphylococcus aureus SAU0017 (MSSA). The data set is described as follows: Broad spectrum MIC, Table 17/18 columns E, F (+ 0.625 mM calcium; + calcium and 30% bovine serum). Format: cell-based. As to conditions: in µg/mL. On the procedure:
as §3, §4

Data set [8] deals with Staphylococcus aureus SAU0031 (VISA). The data set is described as follows: Broad spectrum MIC, Table 17/18 column G. It counts as cell-based. As to conditions: condition G of Table 17, in µg/mL. On the procedure: as §3, §4
Data set [9] deals with Staphylococcus aureus SAU0065 (MRSA). The data set is described as follows: Broad spectrum MIC, Table 17/18 column H. As to conditions: condition H of Table 17, in µg/mL. It counts as cell-based. As for the experimental part: as §3, §4
Data set [10] has as its system Staphylococcus epidermidis SEP0375 (MRSE). The data set is described as follows: Broad spectrum MIC, Table 17/18 column I. It counts as cell-based. As to conditions: condition I of Table 17, in µg/mL. On the procedure:
as §3, §4

In data set [11] the test system is Streptococcus pneumoniae SPN0002 (PISP). The data set is described as follows: Broad spectrum MIC, Table 17/18 column J. It counts as cell-based. Conditions: condition J of Table 17, in µg/mL. On the procedure: as §3, §4
The subject of data set [12] is Streptococcus pneumoniae SPN0023 (PRSP). The data set is described as follows: Broad spectrum MIC, Table 17/18 column K. Format: cell-based. As to conditions: condition K of Table 17, in µg/mL. On the procedure:
as §3, §4

The test system of data set [13] is Streptococcus pneumoniae SPN0032 (PSSP). The data set is described as follows: Broad spectrum MIC, Table 17/18 column L. It counts as cell-based. Conditions: condition L of Table 17, in µg/mL. As for the experimental part: as §3, §4
The test system of data set [14] is Streptococcus pyogenes SPY0001 (PenS). The data set is described as follows: Broad spectrum MIC, Table 17/18 column M. Format: cell-based. As to conditions: condition M of Table 17, in µg/mL. On the procedure:
as §3, §4

Data set [15] deals with S. pneumoniae (SPN 0032, ATCC 10813). The data set is described as follows: Intraperitoneal murine model of protection against infection (ED50, Table 21). As to conditions: Swiss CD1 mice infected i.p., compound i.v. Format: in vivo, Streptococcus pneumoniae.
Description: as §1, §2

The MIC is the least concentration at which growth counts as inhibited. A word on the half-life: it is the time needed for the level to fall by half in the phase considered. As usually defined, the MTD is the highest dose tested that stayed within the study's limit of toxicity. High values mean a wide tolerated range, low ones a narrow tolerated range. Regarding `CCCCCCCCCCCC(=O)Nc1ccc(CC(=O)NC(CC(=O)O)C(=O)NC2C(=O)N3CCCCC3C(=O)NC(C(C)C(=O)O)C(=O)NC(CC(=O)O)C(=O)NCC(=O)NC(CC(=O)O)C(=O)NCC(=O)NC(C(C)N)C(=O)NC(C(C)C)C(=O)N3CCCC3C(=O)NC2C)cc1` (stereo not drawn) [Compound 119, C12-(p-Apa)-Amphomycin] (Lauroyl-[X1]D[ξAbu(βξ-NH2)][Pip][ξAsp(βξ-Me)]DGDG[ξAbu(3ξ-NH2)]VP; lactam 3-C; configuration not given here), the MIC in data set [1] was determined as 0.25 µg/mL. For the same compound, in data set [2], the half-life turned out to be 4.22 h. In addition, in data set [3], the “ED50 in Mice, S. aureus (SAU0017)” value worked out at 7.6 mg/kg. In addition, the MTD at 7 days in data set [4] fell in the range of 50 to 200 mg/kg.
Consider `CCCCCCCCCCCCC(=O)NC(CC(=O)O)C(=O)NC1C(=O)N2CCCCC2C(=O)NC(C(C)C(=O)O)C(=O)NC(CC(=O)O)C(=O)NCC(=O)NC(CC(=O)O)C(=O)NCC(=O)NC(C(C)NC(=O)CNC(=O)[C@@H](N)CCCCN)C(=O)NC(C(C)C)C(=O)N2CCCC2C(=O)NC1C` (stereo partly drawn) [Compound 128, C13-Amphomycin-9-Gly-Lys], for which, in [2], the half-life came out at 0.198 h. Further, in data set [3], the “ED50 in Mice, S. aureus (SAU0017)” value was 6.2 mg/kg.
For `CCCCCCCCCCCCCCNC(=O)NC(CC(=O)O)C(=O)NC1C(=O)N2CCCCC2C(=O)NC(C(C)C(=O)O)C(=O)NC(CC(=O)O)C(=O)NCC(=O)NC(CC(=O)O)C(=O)NCC(=O)NC(C(C)N)C(=O)NC(C(C)C)C(=O)N2CCCC2C(=O)NC1C` (stereo not drawn) [Compound 253, CH3—(CH2)13—NH—C(═O)-Amphomycin], the MIC in [1] was 0.5 to 1 µg/mL. For the same compound, the “MIC, media condition A” value in [5] is on record as 0.5-1. The “MIC, media condition B” value in [6] (condition B: CAMHB) is listed as 1. In addition, the “MIC, media condition C” value in data set [6] (condition C: + 0.625 mM calcium) is 0.5-1. The “MIC, media condition D” value in data set [6] (condition D: + calcium and 30% bovine serum) is reported as 16-32. The “MIC, media condition E” value in data set [7] (condition E: + 0.625 mM calcium) is on record as 0.5-1. The “MIC, media condition F” value in data set [7] (condition F: + calcium and 30% bovine serum) is 2-4. Also, the “MIC, media condition G” value in data set [8] was 2-4. The “MIC, media condition H” value in [9] is listed as 1-2. The “MIC, media condition I” value in data set [10] amounted to 1. Further, in data set [11], the “MIC, media condition J” value came to 0.125. The “MIC, media condition K” value in data set [12] is on record as 0.125. Further, in [13], the “MIC, media condition L” value was determined as 0.125. Moreover, in data set [14], the “MIC, media condition M” value was 0.25. In [2], this compound gave a half-life of 5.15 h. The “ED50 in Mice, S. aureus (SAU0017)” value in [3] is 4.8 mg/kg.
Take amphomycin [reference compound]: the “ED50 in Mice, S. aureus (SAU0017)” value in data set [3] amounted to 5.4 mg/kg. In addition, in data set [15], the “ED50 in Mice, S. pneumoniae (SPN0032)” value is 2.0 mg/kg.

The values are drawn from patent publication US7868135B2, “Compositions of lipopeptide antibiotic derivatives and methods of use thereof” (priority 2003, dated 2011).
